Laboratory results from US11938153B2, “Methods of treating T cell exhaustion by inhibiting or modulating T cell receptor signaling” (THE BOARD OF TRUSTEES OF THE LELAND STANFORD JUNIOR …, priority 2017, dated 2024).
Values belong to the compound of their own block, whether it stands above or below them.

Key:
GD2.28z.FKBP CAR T cells [1] = assay: Exhaustion phenotype of GD2.28z.FKBP CAR T cells after S1 removal (FACS); type: cell-based, human
Source text: Since tonic signaling is highly dependent upon GD2-CAR receptor levels, precise control of CAR expression levels also precisely regulates levels of tonic signaling. Drug regulated control of levels of CAR expression therefore also allowed modulation of the duration and intensity of GD2.28z tonic signaling. […] This is most well illustrated by measuring levels of PD-1/TIM-3/LAG-3 triple expressing cell which is highly specific for dysfunctional, exhausted T cells. […] Similar results were obtained on day 14 for cells in which S1 was removed from culture medium on day 7 or day 10 (not shown).

[2] = test system: HA-GD2.28z.FKBP CAR T cells; assay: Sorted PD-1/TIM-3/LAG-3 triple positive HA-GD2.28z.FKBP CAR T cells re-cultured with or without S1 (FACS, co-culture); type: cell-based, human
Source text: Functional studies by several groups, including our lab have verified that co-expression of PD-1, TIM-3, and LAG-3 (triple positive, TP) denotes an exhausted cell subset that is highly dysfunctional. We thus sought to analyze whether cessation of tonic signaling in this cell subset could reverse their phenotype and restore their ability to secrete IL-2 in response to tumor antigen. […] On day 10 post-activation, HA-GD2.28z.FKBP CAR T cells that had experienced continuous S1 treatment were sorted in order to isolate a pure PD-1/TIM-3/LAG-3 exhausted population. “Triple positive” exhausted cells were then re-cultured either with or without S1 to test whether removal of tonic signaling could restore their function. FACS and co-culture assays were conducted 4 days later.

[3] = test system: HA-GD2.28z.FKBP CAR T cells; assay: Western blot of CAR CD3-zeta phosphorylation (tonic signaling); type: cell-based, human; conditions: cultured in the absence of S1 (CAR Always OFF)
Source text: This phenotype was also reversible, as indicated by the lack of CD3-zeta phosphorylation in DD-CAR T cells that were initially cultured with S1, but then had drug removed on day 7 of the culture (FIG. 16, CAR OFF D7).

HA-GD2.28z.FKBP = assay: Exhaustion marker co-expression on HA-GD2.28z.FKBP CAR T cells; type: cell-based, human; conditions: upon removal of shield-1 from the culture medium
Description: When assessing IL-2 and IFNγ, cells were surface stained, then fixed and permeablized (eBioscience) prior to incubation with intracellular antibodies.
T cells were removed from culture, fixed in 2% PFA for 10 minutes at room temperature, pelleted and frozen at −80C. Upon thawing, each sample was barcoded with a 20-plex Pd harcoding kit (FIuidigm). Cell samples were then pooled and stained for surface marker expression with heavy-metal conjugated antibodies for 30 minutes at room temperature. Cells were then permeablized in methanol and subsequently stained with heavy metal-conjugated anti-human T-bet (4B10, Biolegend) and anti-human Blimp-1 (ROS195G, Biolegend) for 30 minutes at room temperature. Samples were run on a Helios mass cytometer (Fluidigm) and analyses were complete using Cytobank online software.
It was next determined whether the prevention or reversal of tonic signaling in HA-GD2.28z.FKBP-expressing CAR T cells altered their exhaustion phenotype.

Her2.28z.FKBP = biological target: T1, Her2.28z.FKBP (Homo sapiens, UniProt P62942, E32G/F37V/K106E/R72G); assay: Regulation of Her2.28z.FKBP CAR expression by shield-1 (protein L stain, FACS); type: cell-based; conditions: 0.1 uM or 1 uM, 24 hours after addition of drug
T1 construct: expressed in transfected cells; host or cells: T cells, lentiviral transduction
T1 sequence (P62942 2-108 E32G/F37V/R72G/K106E): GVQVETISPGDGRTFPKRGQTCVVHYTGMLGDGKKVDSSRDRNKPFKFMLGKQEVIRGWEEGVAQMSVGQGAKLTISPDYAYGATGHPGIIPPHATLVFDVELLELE
Description: The FKBP12 DD domain was fused to the far c-terminus of the Her2.28z CAR. T cells were transduced with lentivirus to express the Her2.28z.FKBP. […] 24 hours after addition of drug, CAR T cells were stained with protein L and CAR expression was assessed via FACS. Both the percentage of CAR+ cells (quantified in the histograms) as well as CAR MFI are increased upon incubation with either 0.1 uM or 1 uM Shield-1 (S1).

GD2.28z.FKBP CAR T cells [4] = assay: IL-2 secretion of GD2.28z.FKBP CAR T cells in co-culture with Nalm6 cells expressing GD2 (ELISA); type: cell-based, human
Description: Because phenotypic markers may not be entirely predictive of T cell function, we also performed functional experiments on CAR T cells provided transient drug exposure in culture. CAR T cells were washed, resuspended in media containing S1, and mixed at a 1:1 ratio with Nalm6 leukemic cells stably expressing surface GD2. Culture supernatants were harvested approximately 24 hours later and cytokine levels were evaluated via ELISA.
Similar to GD2.28z CAR that lacks a destabilization domain and therefore have persistent high levels of CAR signaling, cells expressing the GD2.28z.FKBP CAR that experienced continuous drug treatment (FIG. 4, grey bars) secreted minimal amounts of IL-2 on both day 10 and day 14 post-activation, consistent with T cell exhaustion.

GD2.28z.FKBP CAR = biological target: T2, GD2.28z.FKBP CAR (Homo sapiens, UniProt P62942, E32G/F37V/K106E/R72G); assay: Regulation of GD2.28z.FKBP CAR surface expression by shield-1 (FACS); type: cell-based; conditions: adding or subtracting S1 in culture medium
T2 construct: expressed in transfected cells; host or cells: T cells, lentiviral transduction
T2 sequence (P62942 2-108 E32G/F37V/R72G/K106E): as above
Source text: FIG. 1: Characterization of the GD2.28z.FKBP CAR. T cells were transduced with lentivirus encoding the GD2.28z.FKBP CAR on day 1 after activation and subsequently cultured with various concentrations of shield-1 in the growth medium. On day 7, CAR expression was quantified via FACS.

NALM6-GL-GD2 = conditions: mice that received TMP
Description: At day 7 post-engraftment, 1-5×10^6 GD2.28z.DHFR or HA-GD2.28z.DHFR CAR+ T cells were infused intravenously.
Mice were then injected with either stabilizing drug or vehicle control every day thereafter.
To test this, antigen-bearing tumor cells were engrafted into NSG mice and subsequently infused 2-5E6 HA-GD2.28z.DHFR-expressing T cells. Mice were dosed with TMP everyday thereafter.

[5] = S1 removed day 7 or 10, read day 14, vs continuous S1

CAR MFI (Her2.28z.FKBP): increased | percentage of CAR+ cells (Her2.28z.FKBP): increased | regulation of CAR surface expression (GD2.28z.FKBP CAR): rapidly and dose-dependently regulated
Compound: CC[C@H](C(=O)N1CCCC[C@H]1C(=O)O[C@H](CCc1ccc(OC)c(OC)c1)c1cccc(OCCN2CCOCC2)c1)c1cc(OC)c(OC)c(OC)c1 [shield-1]
apoptosis (annexin V staining) (GD2.28z.FKBP CAR T cells [1]; [5]): prevention of apoptosis | memory markers (CD62L) (GD2.28z.FKBP CAR T cells [1]; [5]): maintenance of memory markers | canonical exhaustion marker expression (GD2.28z.FKBP CAR T cells [1]; S1 removed day 7 post-activation, read day 10): reverses canonical exhaustion marker expression to control levels | expression of exhaustion markers ([2]; 4 days without S1, CD4+ and CD8+ CAR T cells): far less expression of exhaustion markers | increase in IL-2 secretion ([2]; removal of S1 vs continuous S1 days 10-14): 2 fold | CD3-zeta phosphorylation [3]: absent | co-expression of canonical exhaustion markers (HA-GD2.28z.FKBP): rapidly downregulated | IL-2 secretion (GD2.28z.FKBP CAR T cells [4]; S1 removed day 7, vs continuous S1): superior IL-2 secretion | IL-2 secretion of exhausted T cells after rest (GD2.28z.FKBP CAR T cells [4]; S1 removed day 10, rested 4 days, day 14 ELISA): reinvigorated | augmentation of IL-2 secretion (GD2.28z.FKBP CAR T cells [4]; cultured without S1, S1 added back just prior to co-culture, vs continuous S1): 5-10 fold

Compound: COc1cc(Cc2cnc(N)nc2N)cc(OC)c1OC [trimethoprim]
CD69 surface expression of CAR T cells (NALM6-GL-GD2): higher CD69 surface expression

Compound: nivolumab: anti-PD-1 checkpoint inhibitor
IL-2 secretion (GD2.28z.FKBP CAR T cells [4]; continuous S1 + nivolumab, day 10, sustained until day 14): only modest augmentation of IL-2 secretion
